Source: patent US5994402A, “Anti-inflammatory and anti-pyretic method” (priority 1997, dated 1999)

What was measured:
[1] = test system: cerebral ischemia-reperfusion injury; conditions: literature; cited from earlier work
[2] = test system: kidney transplant recipients; experiment: Kidney transplant survival; assay type: in vivo, black 6 mouse donor to C3H mouse; conditions: DEM 6 mmol/kg to donor and recipient; some mice
Text: A kidney from a black 6 mouse was transplanted into a C3H mouse in a sample of ten test mice and ten control mice. This is a major mismatch. In the test group, donors were given a single injection of DEM (6mmol/kg) immediately prior to the harvest of the kidney. Recipient mice received a single dose prior to insertion of the kidney. No other agents were used. In the control group, donors and recipients were not given an injection of DEM.

[3] = test system: skin vascular permeability; experiment: LPS dermal inflammation: skin permeability index; assay type: in vivo, Swiss Webster mice; conditions: for PI (mean ± SEM): 24 h
Method: Swiss Webster mice were injected intradermally with saline or LPS (30 μg) with or without ip DEM or vehicle. Injection sites were harvested after 24 hours and evaluated for change in vascular permeability, using I^125 -labelled albumin and for levels of ICAM-1 mRNA (Table III).

RHEC = experiment: Cytotoxicity to RHEC (LDH, trypan blue, monolayer integrity); assay type: cell-based, rat; conditions: for supernatant lactate dehydrogenase activity: DEM, mean ± SEM
Text: To determine whether the reduction in ICAM-1 expression was a direct effect of DEM, we attempted to recapitulate the effect in vitro using rat heart endothelial cells (RHEC) activated by either LPS or TNF-a.
(§1) ICAM-1 is expressed on a number of cells present in the lung including endothelial cells, macrophages, neutrophils and alveolar epithelial cells {3224}. Since DEM served to reduced PMN sequestration In the lung, we hypothesized that an effect on endothelial cell ICAM-1 expression might be responsible. To test this possibility, we modeled the system in vitro using RHEC activated by either LPS or TNF-a. […] To determine whether the effect of GSH depletion on ICAM-1 expression was species specific, this parameter was similarly evaluated in HUVEC.
Endothelial cells were isolated from the hearts of 5-day old rats according to the method of Kasten ^22 and allowed to grow to confluence. For experiments 11 to 17, human umbilical vein endothelial cells (HUVEC) were isolated as previously described. The endothelial cells were harvested using trypsin-EDTA treatment and seeded into 96 well, flat bottomed microtitre plates in minimal essential medium with 20% fetal calf serum. When the monolayers had reached confluence (approximately 4 days) cells were pretreated with diethylmaleate for 30 minutes followed by activation with either LPS or TNF-a. After 6 hours, supernatants were collected for measurement of lactate dehydrogenase (LDH) activity. Cells were washed twice with RPMI/5% fetal calf serum and incubated with mouse anti-rat ICAM-1 mAb for 1 hour, washed, and then incubated with peroxidase-conjugated goat anti-mouse IgG for 1 hour. Cells were washed again and color development initiated by the addition of the substrate, o-phenyidiamine hydrochloride. After 18 minutes, the reaction was stopped with 3 M sulfuric acid and the optical density at 492 nm determined using a microtitre plate reader. Data are expressed as the change in absorption from baseline. Quantitation of supernatant LDH activity as a measure of cytotoxicity was determined using spectrophotometric methods as previously described ^23.

[4] = test system: antigen-induced arthritis; experiment: Antigen-induced arthritis (AIA); assay type: in vivo, Lewis rats; conditions: DEM 6 mmole/kg ip 1 h prior to antigen; 3+ without DEM
Method: We examined the effect of intracellular thiol depletion in antigen-induced arthritis (AIA) with the administration of diethylmaleate (DEM) which is known to deplete glutathione. AIA was induced by sensitizing Lewis rats with 2 subcutaneous injections of methylated bovine serum albumin (1 mg/ml), then administering an intra-articular injection of mBSA.

[5] = test system: lung permeability after intratracheal LPS; experiment: LPS-induced lung injury: lung permeability index (transcapillary 125I-albumin flux); assay type: in vivo, male Sprague Dawley rats; conditions: for Lung PI (t = 4 hrs): LPS +, mean ± SEM
Method: (§2) Male Sprague Dawley rats weighing 250-275 g were obtained from Charles River Laboratories (Constante, Quebec). All animal studies were performed in accordance with guidelines set forth by the Toronto Hospital Animal Care Committee and the Canadian Council on Animal Care. Animals were housed in standard wire bottom cages, fed standard rat chow and water ad libitum and were allowed to acclimatize before use. Prior to experimentation, animals were fasted overnight and anesthetized with intraperitoneal sodium pentobarbital (50 mg/kg). A tracheostomy was performed and 0.5 ml of saline containing […] of lipopolysaccharide was instilled followed by 20 mechanically ventilated breaths using a rodent ventilator. Sham animals received 0.5 ml of saline alone. Animals were maintained at 37° C. with the use of warming blankets until recovery from anaesthesia.
(§3) For examples 11 to 17, systemic GSH depletion in animals was accomplished by administering various doses of DEM or phorone by intraperitoneal injection following an overnight fast
At the end of the experimental protocol, rats were ventilated, heparin (100 U) was injected into the right ventricle, and 1 ml of blood was withdrawn by cardiac puncture. Following exsanguination, lungs were perfused blood-free by cannulating the pulmonary artery and infusing 10 ml of a low-potassium dextran solution containing 0.5 mg/L of PGE1. The left ventricle, left atria and mitral valve were opened widely to allow free drainage of effluent. The right lung was immediately frozen in liquid nitrogen for assay of non-protein thiols and ICAM-1 and TNF-a mRNA expression, myeloperoxidase activity, as described below. The left lung was used to calculate a permeability index (PI) as follows: [formula] Thioglycollate-induced Peritonitis

lung GSH = experiment: Lung glutathione / non-protein thiol assay (DTNB); assay type: in vivo, male Sprague Dawley rats; conditions: for Lung GSH (t = 4 hrs): LPS +, mean ± SEM
Method: as §2, §3
(§4) Quantitation of total lung and endothelial non-protein sulfhydryls (NPSH) was assessed using a DTNB based assay as described by Jocelyn. Lung tissue was thawed and weighed, and approximately 0.25 gm was homogenized in 2 ml of 5% SSA. The homogenate was sonicated for 30 seconds and centrifuged for 10 minutes at 10 000 g. The resultant acid thiol extract was assayed for NPSH by quantitating the reduction of DTNB through its conversion to 5-thio-2-nitrobenzoic acid (TNB) at 412 nm using a spectrophotometer. Sample values were then calculated from a standard curve generated using known amounts of GSH and are expressed as GSH equivalents per gram of lung tissue.
Quantitation of lung non-protein sulfhydryls (NPSH) was assessed using a DTNB based assay as described by Jocelyn ^17. Lung tissue was thawed and weighed, and approximately 0.25 gm was homogenized in 2 ml of 5% SSA. The homogenate was sonicated for 30 seconds and centrifuged for 10 minutes at 10 000 g. The resultant acid thiol extract was assayed for NPSH by quantitating the is reduction of DTNB through its conversion to 5-thio-2-nitrobenzoic acid (TNB) at 412 nm using a spectrophotometer. Sample values were then calculated from a standard curve generated using known amounts of GSH and are expressed as GSH equivalents per gram of lung tissue.

[6] = test system: intracellular GSH levels in RHEC; experiment: Intracellular GSH in RHEC; assay type: cell-based, rat; conditions: DEM 250 mM (so in the source)
Text: as §1, §4

[7] = phorone 250 mg/kg ip 1 h prior to LPS

CCCCS(=N)(=O)CCC(N)C(=O)O (stereo not shown) [BSO, buthionine sulfoximine]
mortality following cerebral ischemia-reperfusion injury [1]: reduced mortality

CCOC(=O)/C=C\C(=O)OCC [DEM, diethylmaleate]
survival of recipients [2]: 40 to 50 days
skin permeability index, DEM alone ([3]; DEM alone): no effect
PI (mean ± SEM) ([3]; LPS id + DEM 3 mmol/kg ip): 4.03 ± 0.43
PI (mean ± SEM) ([3]; LPS id + DEM 6 mmol/kg ip, p < 0.001 vs LPS): 0.84 ± 0.28
cell viability (trypan blue exclusion) (RHEC; RHEC): did not affect cell viability
integrity of the cell monolayer (RHEC; RHEC): nor alter the integrity of the cell monolayer
supernatant lactate dehydrogenase levels (RHEC; RHEC): unaffected
supernatant lactate dehydrogenase activity (RHEC; RHEC treatment: LPS (1 mg/ml)): 33.0 ± 4.0 U/L
supernatant lactate dehydrogenase activity (RHEC; RHEC treatment: TNF-a (100 ng/ml)): 33.5 ± 2.5 U/L
supernatant lactate dehydrogenase activity (RHEC; RHEC treatment: control): 32.5 ± 3.5 U/L
quantitative histopathology score [4]: 0
Lung PI (t = 4 hrs) ([5]; DEM injected at -1 h): 0.06 ± 0.02
Lung PI (t = 4 hrs) ([5]; DEM injected at -3 h): 0.09 ± 0.02
Lung GSH (t = 4 hrs) (lung GSH; DEM injected at 0 h): 278 ± 18
Lung GSH (t = 4 hrs) (lung GSH; DEM injected at +2 h): 361 ± 16
Lung GSH (t = 4 hrs) (lung GSH; DEM injected at -1 h): 185 ± 48
Lung GSH (t = 4 hrs) (lung GSH; DEM injected at -3 h): 591 ± 118
reduction in intracellular GSH levels [6]: ≈ 75%
intracellular GSH levels ([6]; No DEM: 6.74±0.08, p<0.01): 1.66±0.1 nmoles/106 cells

CC(C)=CC(=O)C=C(C)C [Phorone, diisopropylidene acetone]
LPS-induced increase in lung permeability [5, 7]: almost complete prevention of the increase in lung permeability
reduction in lung GSH levels (lung GSH; [7]): comparable reduction in lung GSH levels
